For one molecule, IC50 results are on record in BindingDB's records for PubMed 28813519 (Erasmus University Medical Center).

Experiment [1] is described as follows: Inhibition of BRD4 in mouse MPNST cells assessed as reduction in cell viability incubated for 72 hrs by SRB assay.
A short description of experiment [2]: Inhibition of BRD4 in mouse primary skin-derived precursors (Nf1-/-, P53-/-) assessed as reduction in cell viability incubated for 72 hrs by SRB assay.

Molecules are shown by their SMILES. A value given as a limit tells only on which side of the number the result lay.

Take `Cc1sc2c(c1C)C(c1ccc(Cl)cc1)=N[C@@H](CC(=O)OC(C)(C)C)c1nnc(C)n1-2`: the IC50 in experiment [1] and in experiment [2] was below 400 nM in each case.
